Five compounds from patent US10105357B2, “Indication of antibiotic drugs for preparation of cancer inhibition pharmaceutical composition” (LAUNX BIOMEDICAL CO., LTD., priority 2014, dated 2018) can be followed below.

Holding throughout (type): cell-based, human
In data set [1] the test system is HL-60 (Acute Promyelocytic Leukemia). Kind of data set: Cell viability analysis, leukemia HL-60. The note with it: for viability at 10 µM: Homo sapiens, HL-60, 72 h, read-out: cell viability (survival rate), HL-60, drug 10 μM, 72 hours, WST-1, OD450 nm. On the technique in general: Formazan colour is commonly taken as a measure of viable cells.
The subject of data set [2] is MKN-45 (Gastric Adenocarcinoma). Put plainly: Cell viability analysis, gastric cancer MKN-45. The note with it: for viability at 10 µM: Homo sapiens, MKN-45, 72 h, read-out: cell viability (survival rate), MKN-45, drug 10 μM, 72 hours, WST-1, OD450 nm.
The next data set has as its system cancer cell lines. Kind of data set: Cell viability analysis (WST-1) on cancer cell lines. The note with it: drug 10 μM, 72 hours, WST-1; Table 3.
Data set [3] deals with HI650 (Lung Adenocarcinoma). Put plainly: Cell viability analysis, lung cancer HI650. The note with it: for viability at 10 µM: Homo sapiens, NCI-H1650, 72 h, read-out: cell viability (survival rate), H1650, drug 10 μM, 72 hours, WST-1, OD450 nm.
Data set [4] deals with HepG2 (Hepatocellular Carcinoma). Kind of data set: Cell viability analysis, hepatic cancer HepG2. The note with it: for viability at 10 µM: Homo sapiens, HepG2, 72 h, read-out: cell viability (survival rate), HepG2, drug 10 μM, 72 hours, WST-1, OD450 nm.
Data set [5] has as its system A375 (Amelanotic Melanoma). Put plainly: Cell viability analysis, skin cancer A375. As to conditions: for viability at 10 µM: Homo sapiens, A-375, 72 h, read-out: cell viability (survival rate), A375, drug 10 μM, 72 hours, WST-1, OD450 nm.
Data set [6] deals with HeLa (Cervix Adenocarcinoma). Kind of data set: Cell viability analysis, cervical cancer HeLa. The note with it: for viability at 10 µM: Homo sapiens, HeLa, 72 h, read-out: cell viability (survival rate), HeLa, drug 10 μM, 72 hours, WST-1, OD450 nm.
Data set [7] deals with TSGH-8301 (Urinary Bladder Carcinoma). Put plainly: Cell viability analysis, bladder cancer TSGH-8301. As to conditions: Homo sapiens, 72 h, read-out: cell viability (survival rate), TSGH, drug 10 μM, 72 hours, WST-1, OD450 nm.
Data set [8] concerns A549 (Lung Adenocarcinoma). Put plainly: Cell viability analysis, lung cancer A549. The note with it: for viability at 10 µM: Homo sapiens, A549, 72 h, read-out: cell viability (survival rate), A549, drug 10 μM, 72 hours, WST-1, OD450 nm.
The test system of data set [9] is PC3 (p53−) (Prostate Adenocarcinoma). Kind of data set: Cell viability analysis, prostate cancer PC3. The note with it: for viability at 10 µM: Homo sapiens, 72 h, read-out: cell viability (survival rate), PC3, drug 10 μM, 72 hours, WST-1, OD450 nm.
The test system of data set [10] is MCF7 (Mammary Gland, Adenocarcinoma). Kind of data set: Cell viability analysis, breast cancer MCF7. The note with it: for viability at 10 µM: Homo sapiens, MCF7, 72 h, read-out: cell viability (survival rate), MCF7, drug 10 μM, 72 hours, WST-1, OD450 nm.
Data set [11] has as its system LoVo (Colorectal Adenocarcinoma). Put plainly: Cell viability analysis, colon cancer LoVo. As to conditions: for viability at 10 µM: Homo sapiens, LoVo, 72 h, read-out: cell viability (survival rate), LoVo, drug 10 μM, 72 hours, WST-1, OD450 nm.
For data set [12], the system named is AGS (Gastric Adenocarcinoma). Kind of data set: Cell viability analysis, gastric cancer AGS. The note with it: for viability at 10 µM: Homo sapiens, 72 h, read-out: cell viability (survival rate), AGS, drug 10 μM, 72 hours, WST-1, OD450 nm.
Setting [13] is: drug 10 μM, 72 hours, WST-1, OD450 nm.

For orientation: viability means a read-out of living cells in per cent, often relative to untreated cells. On to `COc1ccc2c(c1)c(CC(=O)OCC(=O)O)c(C)n2C(=O)c1ccc(Cl)cc1` [Acemetacin (Emflex), Acemetacin], for which the viability at 10 µM in data set [1] worked out at 120%; in data set [2], 103%; in data set [3] it was 78.2%; in [4], 110%; in data set [5] it was 68.4%; in data set [6], 70.9%. In addition, the viability at 10 µM is 99.4% in data set [7]; 88.1% in data set [8]; 90.5% in data set [9]; 87.3% in data set [10]; 94.7% in data set [11]; 69% in data set [12]. Moreover, the “inhibition effect on different cancer cell lines” value in the data set with cancer cell lines is reported as “significant inhibition effect”.
Take `Nc1nc2c(ncn2COCCO)c(=O)[nH]1` [Acyclovir (Aciclovir), Acyclovir]: the viability at 10 µM was found to be 91.6% in data set [1]; 55.9% in [2]; 104% in data set [4]; 112% in data set [5]; 87.2% in [6]; 107% in data set [7]. Besides, the viability at 10 µM in data set [8] was found to be 126%; in data set [9] it was 102%; in data set [10], 75.8%; in data set [11], 66.3%; in data set [12] it was 77.1%. The “inhibition effect on different cancer cell lines” value with cancer cell lines was “significant inhibition effect”.
In the case of `CS(=O)(=O)c1ccc([C@@H](O)[C@@H](CF)NC(=O)C(Cl)Cl)cc1` [Florfenicol], the viability at 10 µM in data set [1] worked out at 109%; in data set [2], 117%; in [3], 87%; in data set [4], 161%; in [5], 88.4%; in [6] it was 95.1%. Moreover, the viability at 10 µM in data set [7] was determined as 86.9%; in [8] it was 67.8%; in data set [9] it was 102%; in [10], 123%; in data set [11], 92.9%. In addition, the “inhibition effect on different cancer cell lines” value in the data set on cancer cell lines is “significant inhibition effect”.
As for `CC(=O)O[C@]1(C(C)=O)CC[C@H]2[C@@H]3C=C(C)C4=CC(=O)CC[C@]4(C)[C@H]3CC[C@@]21C` [Megestrol Acetate], the viability at 10 µM in data set [1] was determined as 94%; in data set [2] it was 74.8%; in data set [3], 56%; in data set [4], 88.9%; in data set [5], 80.8%; in data set [6], 78.6%. Also, the viability at 10 µM in data set [7] came to 74.3%; in data set [9] it was 80.3%; in data set [10] it was 110%; in data set [11], 109%; in [12] it was 84.7%. Also, in the data set on cancer cell lines, the “inhibition effect on different cancer cell lines” value is recorded as “significant inhibition effect”.
For the compound Tenofovir [Tenofovir (Viread)], in data set [1] (setting [13]), the “cell viability (survival rate), HL-60” value is 97.6. Also, the “cell viability (survival rate), MKN-45” value in [2] (setting [13]) is reported as 70.9. Moreover, the “inhibition effect on different cancer cell lines” value in the data set with cancer cell lines is given as “significant inhibition effect”. The “cell viability (survival rate), H1650” value in data set [3] (setting [13]) came to 55.6. For the same compound, the “cell viability (survival rate), HepG2” value in data set [4] (setting [13]) is recorded as 99.0. In data set [5] (setting [13]), the “cell viability (survival rate), A375” value is 60.6. Also, the “cell viability (survival rate), HeLa” value in data set [6] (setting [13]) is given as 95.0. Moreover, the “cell viability (survival rate), A549” value in data set [8] (setting [13]) is given as 47.7. Further, in data set [9] (setting [13]), the “cell viability (survival rate), PC3” value was 68.1. Further, in data set [10] (setting [13]), the “cell viability (survival rate), MCF7” value was found to be 71.1. The “cell viability (survival rate), LoVo” value in data set [11] (setting [13]) came out at 85.9. The “cell viability (survival rate), AGS” value in data set [12] (setting [13]) is recorded as 67.0.
